Experimental data published in patent US7118692B2, “Substituted thienothiophene monomers and conducting polymers” (priority 2004, dated 2006).

Columns and labels:
[1] = toxicity testing, oral LD50; details: in vivo
[2] = toxicity testing, dermal LD50; details: in vivo, topical or ocular
[3] = solubility of monomer in solvents; assay type: physicochemical; details: wide variety of solvents
From the text: The tert-butyl substituted thienothiophenes and their conjugated oligomers and polymers show better properties compared to their hydrogen, decyl and phenyl analogs.

c1cc2cscc2s1 [Thieno[3,4-b]thiophene] gave an LD50 [1] of 50 mg/kg and an LD50 [2] of 200 to 400 mg/kg.
With CC(C)(C)c1cc2cscc2s1 [2-tert-butyl-thieno[3,4-b]thiophene] the LD50 [1] was over 500 mg/kg, the LD50 [2] was over 400 mg/kg and the solubility in solvents [3] was “readily soluble in a wide variety of solvents”.
For c1ccc(-c2cc3cscc3s2)cc1 [2-phenyl-thieno[3,4-b]thiophene], the solubility in solvents [3] was “only sparingly soluble”.
